Test results: patent publication US20150190416A1, “FILAGGRIN PRODUCTION PROMOTER, THERAPEUTIC AGENT FOR DISEASES ASSOCIATED WITH REDUCTION IN PRODUCTION OF FILAGGRIN, AND METHOD FOR SCREENING FOR SAID THERAPEUTIC AGENT” (KYOTO UNIVERSITY, priority 2012, published 2015)

Legend:
Type in all cases: cell-based, human
[1] = test system: GPR142; assay: G protein-coupled receptor (GPCR) array in NHEK cells, GPR142 (Example 3); conditions: Compound 1 1 μM, 3 days
Description: In this example, the expression-increasing effect of Compound 1 on a GPCR in NHEK cells was confirmed by using a GPCR array.
(§1) 1) 5×10^4 cells/well of NHEK cells (Invitrogen) were plated on a 24-well plate, and then 500 μl of a culture medium containing a medium for proliferating normal human epidermal keratinocytes (HuMedia-KG2, KURABO INDUSTRIES LTD.) supplemented with hEGF (0.1 ng/ml), insulin (10 μg/ml), hydrocortisone (0.5 μg/ml), gentamycin (50 μg/ml), amphotericin B (50 ng/ml), and bovine brain pituitary extract (BPE) (0.4%, v/v) were added to the plate, and the cells were cultured under the conditions of 37° C. and 5% CO2 for from 3 to 4 days until the 80 to 85% confluent state was achieved.
2) Next, a DMSO solution of Compound 1 was added to the medium at 1 μM per well, and culture was further conducted for 3 days without changing the medium. In addition, regarding the system to which only CaCl2 (1.5 mM in terms of Ca) as Ca was added and the system to which both Compound 1 and CaCl2 (1.5 mM in terms of Ca) as Ca were added, the culture was conducted in a similar manner for 3 days. As a control example, a solvent only (vehicle) was added.
3) An extraction reagent (TRIzol™, Invitrogen) was used, and according to the manufacturer's protocol, total RNA was extracted from each of cells treated in the step 2). A reverse transcriptase reagent (Prime Script™, Takara) was used, and according to the manufacturer's protocol, cDNA was prepared from the total RNA. Next, a TaqMan™ human GPCR array (AB 4365295, Applied Biosystems) was used, and the analysis was conducted by an ABI PRISM™ 7900HT gene analyzer (Applied Biosystems). The result of measurement was shown as the comparison of the cycle number (ΔCt value) to 18S ribosomal RNA as a control (comparative Ct method).

[2] = test system: GPR142 mRNA; assay: GPR142 mRNA expression in NHEK cells, real-time PCR (Example 4); conditions: Compound 1 1 μM, Ca 1.2 mM, 3 days, compared to the control
Description: In this example, the expression-inducing effects of Compound 1 on GPR142 mRNA and GPR22 mRNA in NHEK cells were confirmed.
as §1, with “plate. Then,” for “plate, and then”, “CO2.” for “CO2 for from 3 to 4 days until the 80 to 85% confluent state was achieved.”
2) After culture under the conditions of the step 1) for 1 day, the medium was exchanged for the culture medium of the step 1) to which a DMSO solution of Compound 1 was added at 1 μM per well every day and the culture was conducted for 3 days. […]
3) An extraction reagent (TRIzol™, Invitrogen) was used, and according to the manufacturer's protocol, total RNA was extracted from each of cells treated with the medicament. […] Next, real-time PCR was conducted by using the following primers and SYBR™ Premix Ex Taq (Takara) with a CFX96 real-time PCR instrument according to the manufacturer's protocol, and the amounts of GPR142mRNA and GPR22mRNA expression were measured. […]

[3] = test system: GPR142; assay: Blocking effect by GPR142 RNAi in NHEK cells (Examples 5 and 6); conditions: calcium priming, siRNA 50 nM, Compound 1 10 nM, 1 day
Description: In this example, it was confirmed that the expression-inducing effects of Compound 1 on GPR142 mRNA and FLG mRNA in NHEK cells were blocked by GPR142 RNAi.
as §1, with “plate. Then,” for “plate, and then”, “CO2.” for “CO2 for from 3 to 4 days until the 80 to 85% confluent state was achieved.”
2) After culture under the conditions of the step 1) for 1 day, the medium was exchanged for the culture medium of the step 1) to which CaCl2 (1.2 mM in terms of Ca) was further added as Ca, and culture was conducted under the conditions of 37° C. and 5% CO2. After culture for 1 day, the medium was exchanged for the same culture medium containing Ca, and culture was further conducted for 1 day.
3) The NHEK cells of the step 2) were transfected with 50 nM of siRNA per well of the 24-well plate by using a transfection reagent, Lipofectamine RNA Max (Invitrogen) according to the manufacturer's protocol.
The sequences of the used three kinds of GPR142 siRNAs and the sequences of the used control siRNAs (all the siRNAs are manufactured by Invitrogen) are described below.
4) After culture for 1 day after the transfection with siRNA in the step 3), the medium was exchanged for the culture medium of the step 1) to which a DMSO solution of Compound 1 was added at 10 nM per well, and culture was further conducted for 1 day. As a control, a solvent only (vehicle) was added.
(§2) 5) An extraction reagent (TRIzol™, Invitrogen) was used, and according to the manufacturer's protocol, total RNA was extracted from each of cells treated with the medicament. A reverse transcriptase reagent (Prime Script™, Takara) was used, and according to the manufacturer's protocol, cDNA was prepared from the total RNA. Next, real-time PCR was conducted by using the following primers and SYBR™ Premix Ex Taq (Takara) with a CFX96 real-time PCR instrument according to the manufacturer's protocol, and the amounts of GPR142 mRNA and FLG mRNA expression were measured. The result of measurement is shown as a GAPDH ratio.
In this example, it was confirmed that the expression-inducing effects of Compound 2 or 3 on GPR142 mRNA and FLG mRNA in NHEK cells were blocked by GPR142 RNAi.
NHEK cells were transfected in the same manner as in Example 5 except that, in the steps 1) to 3) of Example 5, two kinds of GPR142 siRNAs and two kinds of control siRNAs, i.e., GPR142-1 (#HSS139493) and GPR142-3 (#HSS179846) and Control-1 (LOW GC, #129350-200), and Control-3 (HIGH GC, #129350-400) were used as GPR142 siRNAs and control siRNAs, respectively. After culture for 1 day after the transfection was conducted in the same manner as in the step 4) of Example 5, the medium was exchanged for the culture medium to which each of a DMSO solution of Compound 1, a DMSO solution of Compound 2, or a methanol solution of Compound 3 was added at 10 nM per well, and culture was further conducted for 1 day. As a control, a solvent only (vehicle) was added. Regarding each of cells treated with the medicament, real-time PCR was conducted to measure the amounts of GPR142 mRNA and FLG mRNA in the same manner as in the step 5) of Example 5. The results of the measurement are shown as a GAPDH ratio.

[4] = test system: GPR22; assay: Blocking effect by GPR22 RNAi in NHEK cells (Reference Example 1); conditions: calcium priming, siRNA 10 nM, Compound 1 10 nM, 1 day
Description: as §1, with “plate. Then,” for “plate, and then”, “CO2.” for “CO2 for from 3 to 4 days until the 80 to 85% confluent state was achieved.”
2) 1 day after the step 1), the medium was exchanged for the medium supplemented with calcium every day, and culture was conducted for 2 days (priming).
3) The NHEK cells of the step 2) were transfected with 10 nM of siRNA per well of the 24-well plate by using a transfection reagent, Lipofectamine RNA Max (Invitrogen) according to the manufacturer's protocol.
4) After culture for 1 day after the step 3), the medium was exchanged for a medium to which Compound 1 dissolved in DMSO was added at 10 nM per well on the 24-well plate, and culture was conducted for 1 day. As a control example, a solvent only (vehicle) was added.
as §2, with “Real-time” for “Next, real-time”, “using” for “using the following primers and”, “GPR22” for “GPR142”, “mRNA” for “mRNA expression”, “results” for “result”, “are” for “is”

[Ca+2].[Cl-].[Cl-] [Calcium, CaCl2, reference compound]
GPR142 mRNA expression (GPCR array), in words ([1]; Ca 1.5 mM): induced GPR142 mRNA expression
GPR142: cycle number (ΔCt value) to 18S ribosomal RNA ([1]; CaCl2 1.5 mM in terms of Ca, control 29.2): −4.9
GPR142 mRNA expression (GAPDH ratio) [2]: GPR142 mRNA expression was induced
FLG mRNA expression in the presence of GPR142 siRNA [3]: suppressed by GPR142 siRNA
GPR142 mRNA expression in the presence of GPR142 siRNA [3]: suppressed by GPR142 siRNA
FLG mRNA expression in the presence of GPR22 siRNA [4]: not suppressed
GPR22 mRNA expression in the presence of GPR22 siRNA [4]: suppressed by GPR22 siRNA
